The record followed here is ChEMBL document CHEMBL6103585, “Construction and activity evaluation of novel CHS inhibitors against fungal infections” (Eur J Med Chem, 2025).

Data set [1] has as its system Candida albicans. Put plainly: Antifungal activity against Candida albicans ATCC SC5314 assessed as fungal growth inhibition incubated for 72 hrs by broth microdilution method. The format is functional. On the technique in general: Broth dilution looks for growth in wells or tubes with falling amounts of substance.
In a further data set the test system is Candida tropicalis. Put plainly: Antifungal activity against Candida tropicalis ATCC 1369 assessed as fungal growth inhibition incubated for 72 hrs by broth microdilution method. The format is functional.
A further data set deals with Aspergillus fumigatus. Briefly: Antifungal activity against Aspergillus fumigatus KM 8001 assessed as fungal growth inhibition incubated for 72 hrs by broth microdilution method. The format is functional.
A further data set has as its system Nakaseomyces glabratus. Briefly: Antifungal activity against Candida glabrata assessed as fungal growth inhibition incubated for 72 hrs by broth microdilution method. The data set is classed as functional.
The subject of data set [2] is Candida albicans. Briefly: Antifungal activity against fluconazole-resistant Candida albicans CaR assessed as reduction in fungal growth incubated for 72 hrs by broth microdilution method. The format is functional.
The subject of data set [3] is Candida albicans. Briefly: Antifungal activity against fluconazole-resistant Candida albicans 632 assessed as reduction in fungal growth incubated for 72 hrs by broth microdilution method. The format is functional.
Data set [4] deals with Candida albicans. Put plainly: Antifungal activity against fluconazole-resistant Candida albicans 904 assessed as reduction in fungal growth incubated for 72 hrs by broth microdilution method. The format is functional.
A short description of data set [5]: Inhibition of chitin synthase extracted from Candida tropicalis ATCC 1369 using UDP-GlcNAc as substrate incubated for 1 hrs.
Data set [6] has as its system Candida albicans. Briefly: Induction of apoptosis in Candida albicans ATCC SC5314 assessed as viable cells by V-FITC/PI staining based flow cytometric analysis (reference value: 93.3%). The format is functional. (Flow cytometry measures light scatter and fluorescence of single cells or particles in a stream.)
The subject of data set [7] is Candida albicans. Briefly: Induction of apoptosis in Candida albicans ATCC SC5314 assessed as late apoptotic cells by V-FITC/PI staining based flow cytometric analysis (reference value: 0.40%). The format is functional.
Data set [8] concerns Candida albicans. Put plainly: In vivo antifungal activity against Candida albicans 901 infected in mouse model assessed as body weight gain at 5 microg/g, iv pre-infected with fungi by intravenous injection followed by compound administration and measured on day 8. The format is functional, organism-based. The settings on record: dose 5.0 µg/g, time 8.0 day.
Data set [9] concerns Candida albicans. Briefly: In vivo antifungal activity against Candida albicans 901 infected in mouse model assessed as expansion of alveolar spaces in lung at 5 microg/g, iv pre-infected with fungi by intravenous injection followed by compound administration and measured on day 8 by H and E staining based analysis. The format is functional, organism-based. The settings on record: dose 5.0 µg/g, time 8.0 day.

Data set [10] concerns Candida albicans. Briefly: In vivo antifungal activity against Candida albicans 901 infected in mouse model assessed as reduction in genetic material content in lung at 5 microg/g, iv pre-infected with fungi by intravenous injection followed by compound administration and measured on day 8 by H and E staining based analysis. The data set is classed as functional, organism-based. The settings on record: dose 5.0 µg/g, time 8.0 day.

The test system of data set [11] is Candida albicans. Put plainly: In vivo antifungal activity against Candida albicans 901 infected in mouse model assessed as decrease in IFN-gamma protein expression level at 5 microg/g, iv pre-infected with fungi by intravenous injection followed by compound administration and measured on day 8 by Western blotting analysis. The data set is classed as functional, organism-based. The settings on record: dose 5.0 µg/g, time 8.0 day. A general note: In western blotting, separated proteins are transferred to a membrane and probed.

The subject of data set [12] is Candida albicans. Briefly: In vivo antifungal activity against Candida albicans 901 infected in mouse model assessed as decrease in IFN-gamma protein expression level at 5 microg/g, iv pre-infected with fungi by intravenous injection followed by compound administration and measured on day 8 in presence of 1-MT by Western blotting analysis. The data set is classed as functional, organism-based. The settings on record: dose 5.0 µg/g, time 8.0 day.

In data set [13] the test system is Candida albicans. Put plainly: In vivo antifungal activity against Candida albicans 901 infected in mouse model assessed as decrease in PD-L1 protein expression level at 5 microg/g, iv pre-infected with fungi by intravenous injection followed by compound administration and measured on day 8 by Western blotting analysis. The format is functional, organism-based. The settings on record: dose 5.0 µg/g, time 8.0 day.

In data set [14] the test system is Candida albicans. Briefly: In vivo antifungal activity against Candida albicans 901 infected in mouse model assessed as decrease in IDO protein expression level at 5 microg/g, iv pre-infected with fungi by intravenous injection followed by compound administration and measured on day 8 in presence of BPE by Western blotting analysis. The format is functional, organism-based. The settings on record: dose 5.0 µg/g, time 8.0 day.

For data set [15], the system named is Candida albicans. Briefly: In vivo antifungal activity against Candida albicans 901 infected in mouse model assessed as increase in CD4positive expression level in presence of 1-MT. The format is functional, organism-based.
A short description of data set [16]: Toxicity in mouse infected with Candida albicans 901 assessed as change in AST level (reference value: 76.1 +/-4.2 IU/L). The settings on record: in vivo.
The nature of data set [17]: Toxicity in mouse infected with Candida albicans 901 assessed as change in AST level in presence of BPE (reference value: 76.1 +/-4.2 IU/L). The settings on record: in vivo.
Data set [18] can be described thus: Toxicity in mouse infected with Candida albicans 901 assessed as change in ALT level (reference value: 42.8 +/-3.9 IU/L). The settings on record: in vivo.
The nature of data set [19]: Toxicity in mouse infected with Candida albicans 901 assessed as change in ALT level in presence of 1-MT (reference value: 42.8 +/-3.9 IU/L). The settings on record: in vivo.
Data set [20] in a line: Toxicity in mouse infected with Candida albicans 901 assessed as change in BUN level in presence of BPE (reference value: 11.4 +/-1.5 mmol/L). The settings on record: in vivo.

In brackets after ≈: the same amount, converted by molar mass. Activity calls are given as the source filed them. The calls are words filed in the database; no cut-off is given here.

In general, MIC50 refers to an inhibitory concentration at the 50% level, which refers to growth in some studies and to a panel of isolates in others. Usually IC50 stands for the midpoint of a concentration-inhibition curve. The low end stands for greater potency in that assay, the high end for weaker potency in that assay. On to `O=C(CNC(=O)c1nc2ccc(Cl)cc2c(=O)[nH]1)NCC(=O)c1ccccc1`, for which the MIC50 with Candida albicans [1] is 1 µg/mL (≈ 2.51 µM); in the data set on Candida tropicalis it was 0.5 µg/mL (≈ 1.25 µM); in the data set on Aspergillus fumigatus it was 2 µg/mL (≈ 5.01 µM); with Nakaseomyces glabratus it was 2 µg/mL (≈ 5.01 µM); in the data set with Candida albicans [2], 2 µg/mL (≈ 5.01 µM); with Candida albicans [3], 2 µg/mL (≈ 5.01 µM). The MIC50 in the data set with Candida albicans [4] stood at 4 µg/mL (≈ 10 µM). In [5], the IC50 is 14.7 µM. The Activity in the data set with Candida albicans [6] is on record as 57.1%; in the data set with Candida albicans [7] it was 12.1%; in data set [16], 63.9 IU/L; in [17], 70.4 IU/L; in data set [18] it was 33.6 IU/L; in data set [19], 40.2 IU/L. Moreover, the Activity in [20] worked out at 9.5 mmol/L. For the same compound, the outcome in the data set with Candida albicans [8], in the data set with Candida albicans [9], in the data set on Candida albicans [10], in the data set on Candida albicans [11], in the data set with Candida albicans [12] and with Candida albicans [13] was Active. The result in the data set on Candida albicans [14] and in the data set with Candida albicans [15] was Active.
